Data as given in PMC11375702, “Early Preclinical Studies of Ergosterol Peroxide and Biological Evaluation of Its Derivatives” (ACS Omega, 2024).
pEC50, pIC50: −log10 of the molar value. Values after ≈ are worked out from the molar mass of the structure shown. Like-named read-outs stand apart in the source and are kept apart here.

Legend:
[1] = Aqueous solubility by UV/vis absorbance; format: physicochemical; conditions: kinetic from dmso stock
Description: (§1) First, topological polar surface area (tPSA), a widely used molecular descriptor that provides insight into compound absorption and membrane penetration, was theoretically calculated for these compounds along with the estimated c log P (partition coefficient) or log P to further assess their global therapeutic potential.[18],[19] Lipophilicity, a measurable and predictable physical property, can provide practical guidance in designing compounds with improved molecular properties.[20] The tPSA sums the contribution of the surface area of polar atoms, enabling us to determine whether the compounds are more likely to be cell membrane permeable. The aqueous solubility was measured by ultraviolet/visible (UV/vis) spectroscopy.[21] […] EP shares an improved cLogP, but still relatively high from a desirable drug candidate (2.5–3.5). […] Compound 4 has a higher c log P, while compounds 5–10 have lower c log P values. To determine LiPE (lipophilicity efficiency), the following formula was used: LiPE = pIC50 – log P, according to established methods.[22],[23] […] The obtained EC50 values for the newly generated EP derivatives were within a similar range for other derivatives previously described against TNBC models.[17]
Briefly, clear 96-well PS plates with lids (catalog no. 3903, Corning, Glendale, Arizona) were used for spectrophotometric determination of absorbance with a CLARIOstar Plus plate reader (BMG LabTech, Ortenberg, Germany) to determine at which concentration the compounds are precipitating out of solution. Decrease in transmittance of 2% or higher was considered significant. Compound solutions of 10 mM in DMSO were prepared followed by a serial dilution series, which were vortexed to ensure the solutions were homogeneous. The 96-well plate was then prepared with distilled H2O and allowed to equilibrate for 1.5 h. Then, the plate was placed in a CLARIOstar Plus plate reader or Cytation C10 (Biotek, Agilent) and set to detect absorbance at 220–700 nm. Each well was read individually. Three replicate assays were conducted for each experimental condition, and a minimum of three independent experiments were conducted.

SUM149 = assay: CellTiter-Glo 72 h cytotoxicity assay, SUM149; format: cell-based; conditions: Homo sapiens; for pEC50: SUM149, CTG assay, 72 h; for pIC50: calculated from SUM149 EC50
Description: as §1
The following stable human cell lines were utilized for this study: SUM149 and MDA-MB-231 (breast cancer models) and BJ (human normal fibroblast, foreskin). Cells were purchased from BioIVT or the American Type Culture Collection (ATCC). Cells were cultured in F-12-Nutrient Mixture (SUM149), DMEM (MDA-MB-231), or EMEM (BJ) medium supplemented with 10% fetal bovine serum (Sigma-Aldrich, St. Louis, MO) and 2 mmol of L-glutamine, at 37 °C in a humidified 5% CO2 atmosphere (no antibiotics) as indicated by the manufacturer. Cell cultures were grown to 80–90% confluence before use, except where otherwise specified. Our cell lines are authenticated every 3 months using the CellCheck service (Idexx BioResearch, Westbrook, ME). Cells were tested for mycoplasma prior to use (MycoAlert detection Kit Lonza LT07–318) and discarded if they tested positive. A cell proliferation assay was performed using the CellTiter-Glo (Promega Corp., Madison, WI) luminescent cell viability assay kit. Cells were detached with trypsin, counted, and seeded in white polystyrene flat-bottom sterile 96-well tissue culture-treated plates (catalog no. 3917, Corning, Glendale, Arizona) and incubated overnight at 37 °C. MDA-MB231, SUM149, and BJ cells were seeded into 96-well plates at concentrations experimentally determined (0.4 × 10^4, 0.25 × 10^4, and 0.3 × 10^4 cells per well, respectively) to ensure logarithmic growth during the duration of the experiment and to prevent adverse effects on cell growth by DMSO exposure. The plates were incubated for 12 h before treatment. Stock solutions of test compounds (10 mM in DMSO) in nine 3-fold serial dilutions were dispensed. The final concentration of DMSO was 0.3% (v/v) in each well. The positive control used was staurosporine (10 μM) as the kill-all control, and the negative control used is DMSO as we have published. Staurosporine is a potent alkaloid inducer of various cell death modalities but primarily apoptosis, making it a reliable positive control for viability assays. The plates were incubated for 72 h and then quenched with CTG at 50 μL per well at RT. Plates were then incubated at RT for 20 min and centrifuged at 1000 rpm for 1 min. Luminescence was read on a CLARIOstar Plus plate reader (BMG LabTech, Ortenberg, Germany).
Three or four technical replicates were conducted for each experimental condition, and a minimum of three independent experiments were conducted for each assay. In vitro ADME values were expressed as mean ± standard deviation (SD) of at least three independent experiments. One-way analysis of variance (ANOVA) was adopted for comparisons among groups using the GraphPad Prism 10.2.3 (GraphPad Software, San Diego, CA). A difference of P < 0.05 was considered as statistically significant. […]

CYP2D6 = CYP2D6 (Homo sapiens, UniProt P10635); assay: Microsomal CYP inhibition assay, CYP2D6; format: in vitro ADME; conditions: pooled human liver microsomes, probe dextromethorphan
Sequence of CYP2D6 (P10635 whole entry): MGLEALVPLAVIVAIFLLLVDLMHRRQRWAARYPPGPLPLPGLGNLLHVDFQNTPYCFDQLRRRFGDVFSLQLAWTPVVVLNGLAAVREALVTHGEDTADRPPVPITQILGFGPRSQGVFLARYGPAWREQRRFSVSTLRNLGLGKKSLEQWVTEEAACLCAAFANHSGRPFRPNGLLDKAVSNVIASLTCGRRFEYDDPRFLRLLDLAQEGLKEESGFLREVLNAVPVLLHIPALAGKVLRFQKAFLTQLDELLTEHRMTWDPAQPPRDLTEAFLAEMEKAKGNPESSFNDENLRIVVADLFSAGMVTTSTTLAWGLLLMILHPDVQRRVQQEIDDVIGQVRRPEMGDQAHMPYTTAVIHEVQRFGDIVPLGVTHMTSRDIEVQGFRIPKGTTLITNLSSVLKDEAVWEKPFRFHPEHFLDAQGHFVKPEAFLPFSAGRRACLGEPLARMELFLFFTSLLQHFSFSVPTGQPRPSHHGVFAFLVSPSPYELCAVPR
Description: To assess potential cardiotoxicity, we performed the human ether-go-go-related gene (hERG) inhibition assay. […] Briefly, EP was tested at six concentrations (cumulative concentration–response). […] For hepatotoxicity determination, we performed the microsomal CYP inhibition assay. Briefly, EP was incubated at seven increasing concentrations with pooled human liver microsomes. […] The supernatants were analyzed by LC-MS/MS.

[2] = Caco-2 permeability assay; format: in vitro ADME; conditions: human; for efflux ratio at 2 h, 10 µmol/L: Caco-2, pH 7.4, Caco-2, read-out: efflux ratio (B2A/A2B); for Papp A→B at 2 h, 10 µmol/L / Papp B→A at 2 h, 10 µmol/L: Caco-2, pH 7.4; for Papp A→B at 2 h, 10 µmol/L: apical to basolateral; for Papp B→A at 2 h, 10 µmol/L: basolateral to apical
Description: It was performed in the 96-well Transwell system with a modified method.[36] Caco-2 cells were maintained at 37 °C in a humidified incubator with an atmosphere of 5% CO2. The cells were cultured in MEM containing 20% FBS in […], 100 units/mL penicillin, and 100 μg/mL of streptomycin. The Caco-2 cells were seeded onto inserts of a 96-well plate at a density of 0.5 × 10^5 cells/insert and cultured in the MEM containing 20% FBS for 7 days. Each cultured monolayer on the 96-well plate was washed twice with HBSS/HEPES (10 mM, pH 7.4). The permeability assay was initiated by the addition of each compound solution (10 μmol/L) into inserts (apical side, A) or receivers (basolateral side, B). The Caco-2 cell monolayers were incubated for 2 h at 37 °C. Fractions were collected from receivers (if apical to basal permeability) or inserts (if basal to apical permeability), and concentrations were assessed by UPLC/MS (Waters; Milford, MA). All compounds were tested in triplicates. The A → B (or B → A) apparent permeability coefficients ([…]) of each compound were calculated using the equation Pappa = dQ/dt × 1/AC0. The flux of a drug across the monolayer is dQ/dt (μmol/s). The initial drug concentration on the apical side is C0 (μmol/L). The surface area of the monolayer is A (cm^2).

Row | SMILES | solubility at […] ([1]; distilled water, distilled H2O, UV/vis, read-out: solubility limit) [µg/mL] | pEC50 (SUM149) | pIC50 (SUM149) | pIC50 (CYP2D6) | efflux ratio at 2 h, 10 µmol/L [2] | Papp A→B at 2 h, 10 µmol/L [2] [×10⁻⁶ cm/s] | Papp B→A at 2 h, 10 µmol/L [2] [×10⁻⁶ cm/s] | solubility at […] ([1]; water) [µg/mL]
1 | CC(C)[C@@H](C)/C=C/[C@@H](C)[C@H]1CC[C@@H]2[C@]1(C)CC[C@H]1[C@]23C=C[C@]2(C[C@@H](O)CC[C@]12C)OO3 [Compound 2, Ergosterol peroxide] | 21.4 (≈ 50 µM) | 5.22 | 5.22 | < 4.60 | ~1 | 34.2 | 31.9 | 
2 | CC(C)[C@@H](C)/C=C/[C@@H](C)[C@H]1CC[C@@H]2[C@]1(C)CC[C@H]1[C@]23C=C[C@]2(CC(=O)CC[C@]12C)OO3 [Compound 3] |  | 5.30 | 5.30 |  | 0.49 | 0.626 | 0.307 | 10.7 (≈ 25 µM)
